These results are taken from US11412737B2, “Mixtures of beflubutamid or optically enriched forms thereof with a second herbicide” (FMC Corporation, priority 2016, dated 2022).

One experiment relates to Wild oat (AVEFA). Put plainly: pre-emergence test, weed control. The format is in vivo, Avena fatua. The conditions noted are these: pre-emergent, 21 DAT, rate g ai/ha by row: r4 94, r5 125, r6 250, r7 125, r8 250, r9 500, r10 94+125, r11 125+125, r12 94+250, r13 125+250, r14 94+500, r15 125+500. Here is the method: (§1) Test compositions containing the test compounds were diluted with water to provide the appropriate test rate concentrations.
(§2) For pre-emergence testing, four disposable fiber flats (6 inch by 10 inch) for each rate of application of each herbicide solution were filled with top soil, to which seeds of each species were planted in furrows made by a template pressed on the top of the soil. The furrows were covered with soil after planting the seed and were watered well before application of the test compounds.
(§3) Fiber flats designated for treatment were placed in a spray chamber having a static platform and a movable sprayer and the height of the spray nozzle was 10.5 inches above the soil level. Once the sprayer was calibrated using water for spray volume of 30 gallons per acre, flats were sprayed with sprayer at a speed to receive a coverage equivalent of 30 gallons per acre. The application rates are those shown in the Tables below for the individual herbicidal solutions and the herbicide compositions of this invention. The pre-emergence flats were immediately placed in the greenhouse and watered lightly after treatment. Thereafter they were regularly watered and fertilized for the duration of the test.
(§4) The control of weeds was evaluated in each experimental test at 21 for wheat and 28 days after treatment (DAT) for all species. Data were analyzed using Minitab software at 95% confidence interval. The results, shown as an average of the replications, were compared with results observed in untreated control flats in the same tests. Percent control was determined by a method similar to the 0 to 100 rating system disclosed in “Research Methods in Weed Science,” 2nd ed., B. Truelove, Ed.; Southern Weed Science Society; Auburn University, Auburn, Ala., 1977. The rating system is as follows in Table 1.

Another experiment concerns Palmer amaranth (AMAPA). Put plainly: post-emergence test, weed control. The following applies: post-emergent, 28 DAT, COC 1%, rate g ai/ha by row: r5 94, r6 125, r7 250, r8 1.25, r9 2.5, r10 5, r11 94+1.25, r13 125+1.25, r15 94+2.5, r17 125+2.5, r19 94+5, r21 125+5. It is filed as in vivo, Amaranthus palmeri. Here is the method: as §1
For post-emergence testing, seeds of each species for each rate of application of each herbicide solution were planted in 7.5 cm×7.5 cm plastic pots filled with potting soil. The seeds were germinated and the resulting plants were allowed to grow in a greenhouse until they reached a growth stage, such as height, suitable for testing. […] Pots of post-emergent treated plants were returned to the greenhouse and not watered for 24 hours after treatment. Thereafter they were regularly watered and fertilized for the duration of the test.
The control of weeds was evaluated in each experimental test at 21 for wheat and 28 days after treatment (DAT) for all species. […] The rating system is as follows in Table 1.

Experiment [1] relates to Marestail (horsetail) (ERICA). Put plainly: post-emergence test, weed control. The conditions noted are these: post-emergent, 28 DAT, height 1 cm (3-5 rosette); rate g ai/ha by row: r25 94, r26 125, r27 188, r28 125, r29 250, r30 94+125, r31 125+125, r32 188+125, r33 94+250, r34 125+250, r35 188+250. It is filed as in vivo.
For experiment [2], the system named is Chinese sprangletop (LEFCH). Put plainly: post-emergence test, weed control. It is filed as in vivo. The conditions noted are these: post-emergent, 28 DAT, height ≤0.5 cm, rate g ai/ha by row: r7 94, r8 125, r9 188, r10 125, r11 250, r12 94+125, r13 125+125, r14 188+125, r15 94+250, r16 125+250, r17 188+250.
For the next experiment, the system named is Green foxtail (SETVI). Briefly: pre-emergence test, weed control. The format is in vivo, Setaria viridis. The conditions noted are these: pre-emergent, 28 DAT. Here is the method:
as §1, §2, §3, §4

On to `CCC(Oc1ccc(F)c(C(F)(F)F)c1)C(=O)NCc1ccccc1` (racemic) [BFL, 2-[4-fluoro-3-(trifluoromethyl)phenoxy]-N-(phenylmethyl)butanamide], for which the entries for the “percentage of weed control, Wild Oat AVEFA” value in the experiment on Wild oat (AVEFA) (94 g ai/ha) and in the experiment with Wild oat (AVEFA) (125 g ai/ha) were 10% and 9%, respectively. In addition, the “percentage of weed control, Palmer amaranth AMAPA” value in the experiment with Palmer amaranth (AMAPA) (BFL at 94 g ai/ha) was found to be 46%; in the experiment on Palmer amaranth (AMAPA) (BFL at 125 g ai/ha) it was 48%; in the experiment on Palmer amaranth (AMAPA) (BFL at 250 g ai/ha), 53%.

In the case of `CC1(C)CON(Cc2ccc(Cl)cc2Cl)C1=O` [DCI, 2-(2,4-dichlorophenyl)methyl-4,4-dimethyl-3-isoxazolidinone], the “percentage of weed control, ERICA” value in experiment [1] amounted to 0%. In addition, the entries for the “percentage of weed control, LEFCH” value in experiment [2] (125 g ai/ha) and in experiment [2] (250 g ai/ha) were 89% and 79%, respectively. In addition, the “percentage of weed control, SETVI” value was found to be 91% in the experiment on Green foxtail (SETVI) ((+)-BFL >95% e.e., rate g ai/ha by row: r6 62.5, r7 125, r8 62.5, r9 125, r10 222, r11 445, r12 22.5, r13 45, r14 62.5+62.5, r15 125+62.5, r16 62.5+125, r17 125+125, r18 62.5+222, r19 125+222, r20 62.5+445, r21 125+445, r22 62.5+22.5, r23 125+22.5, r24 62.5+45, r25 125+45, 62.5 g ai/ha); 99% with Green foxtail (SETVI) ((+)-BFL >95% e.e., rate g ai/ha by row: r6 62.5, r7 125, r8 62.5, r9 125, r10 222, r11 445, r12 22.5, r13 45, r14 62.5+62.5, r15 125+62.5, r16 62.5+125, r17 125+125, r18 62.5+222, r19 125+222, r20 62.5+445, r21 125+445, r22 62.5+22.5, r23 125+22.5, r24 62.5+45, r25 125+45, 125 g ai/ha); 98% in the experiment with Green foxtail (SETVI) ((−)-BFL >95% e.e., rate g ai/ha by row: r6 62, r7 125, r8 125, r9 250, r10 445, r11 890, r12 45, r13 90, r14 62+125, r15 125+125, r16 62+250, r17 125+250, r18 62+445, r19 125+445, r20 62+890, r21 125+890, r22 62+45, r23 125+45, r24 62+90, r25 125+90, 125 g ai/ha); 99% in the experiment on Green foxtail (SETVI) ((−)-BFL >95% e.e., rate g ai/ha by row: r6 62, r7 125, r8 125, r9 250, r10 445, r11 890, r12 45, r13 90, r14 62+125, r15 125+125, r16 62+250, r17 125+250, r18 62+445, r19 125+445, r20 62+890, r21 125+890, r22 62+45, r23 125+45, r24 62+90, r25 125+90, 250 g ai/ha).
